From ChEMBL document CHEMBL4765305, “Elephantopinolide A-P, germacrane-type sesquiterpene lactones from Elephantopus scaber induce apoptosis, autophagy and G2/M phase arrest in hepatocellular carcinoma cells” (Eur J Med Chem, 2020)

Experiments:
HepG2 [1] = test: Anti-hepatoma activity against human HepG2 cells assessed as cell growth inhibition by MTT assay; format: functional, cell-based
Hep 3B2 [2] = test: Anti-hepatoma activity against human Hep3B cells assessed as cell growth inhibition by MTT assay; format: functional, cell-based
Hep 3B2 [3] = test: Induction of autophagy in human Hep3B cells by MDC staining based flow cytometry analysis (Rvb =3.52%); format: functional
HepG2 [4] = test: Induction of autophagy in human HepG2 cells by MDC staining based flow cytometry analysis (Rvb =4.46%); format: functional

In the case of `C/C=C(\C)C(=O)O[C@H]1CC2=C[C@@H](C/C(C)=C/[C@H]3OC(=O)C(CO)=C13)OC2=O`, the IC50 (HepG2 [1]) is reported as greater than 20 µM and the IC50 (Hep 3B2 [2]) is reported as greater than 20 µM.
With `C=C1C(=O)O[C@H]2[C@H]1[C@@H](OC(=O)/C(C)=C\C)CC1=C[C@H](CC(=C)[C@H]2O)OC1=O` the IC50 (HepG2 [1]) was 8.35 µM and the IC50 (Hep 3B2 [2]) was 8.16 µM.
For `C=C(C)C(=O)OCC1=C2[C@@H](O)CC3=C[C@@H](C/C(C)=C/[C@H]2OC1=O)OC3=O`, the IC50 (HepG2 [1]) was greater than 20 µM and the IC50 (Hep 3B2 [2]) was greater than 20 µM.
`C=C1C(=O)O[C@H]2CC3=C[C@@H](C[C@@](C)(O)/C=C/[C@H]12)OC3=O` gave an IC50 (HepG2 [1]) greater than 20 µM and an IC50 (Hep 3B2 [2]) greater than 20 µM.
`C=C(C)C(=O)O[C@H]1CC2=C[C@H](C[C@@]3(C)O[C@H]3[C@H]3OC(=O)C(=C)[C@@H]31)OC2=O` was tested, and the IC50 (HepG2 [1]) was 2.55 µM and the IC50 (Hep 3B2 [2]) was 4.26 µM.
For `C[C@@H]1C(=O)O[C@H]2CC3=C[C@@H](C[C@@](C)(O)/C=C/[C@@H]21)OC3=O`, the IC50 (HepG2 [1]) was greater than 20 µM and the IC50 (Hep 3B2 [2]) was greater than 20 µM.
`C=C(C(=O)OC)[C@H]1/C=C/[C@](C)(O)C[C@@H]2C=C(C[C@@H]1OC(=O)/C(C)=C\C)C(=O)O2` gave an IC50 (HepG2 [1]) greater than 20 µM and an IC50 (Hep 3B2 [2]) greater than 20 µM.
For `CNC(=O)c1cc(Oc2ccc(NC(=O)Nc3ccc(Cl)c(C(F)(F)F)c3)cc2)ccn1` [SORAFENIB], the IC50 (HepG2 [1]) was 9.75 µM, the IC50 (Hep 3B2 [2]) was 5.2 µM and the Activity (Hep 3B2 [3]) was 7.29%. It also gave an Activity (HepG2 [4]) of 4.1%.
